This is an account of results in patent US20100056565A1, “Heterocyclic Derivatives as M3 Muscarinic Receptors” (priority 2007, published 2010).

Molecules are shown by their SMILES. Where a name gives a salt, the structure may show the parent alone.

T1 sequence (P20309 whole entry): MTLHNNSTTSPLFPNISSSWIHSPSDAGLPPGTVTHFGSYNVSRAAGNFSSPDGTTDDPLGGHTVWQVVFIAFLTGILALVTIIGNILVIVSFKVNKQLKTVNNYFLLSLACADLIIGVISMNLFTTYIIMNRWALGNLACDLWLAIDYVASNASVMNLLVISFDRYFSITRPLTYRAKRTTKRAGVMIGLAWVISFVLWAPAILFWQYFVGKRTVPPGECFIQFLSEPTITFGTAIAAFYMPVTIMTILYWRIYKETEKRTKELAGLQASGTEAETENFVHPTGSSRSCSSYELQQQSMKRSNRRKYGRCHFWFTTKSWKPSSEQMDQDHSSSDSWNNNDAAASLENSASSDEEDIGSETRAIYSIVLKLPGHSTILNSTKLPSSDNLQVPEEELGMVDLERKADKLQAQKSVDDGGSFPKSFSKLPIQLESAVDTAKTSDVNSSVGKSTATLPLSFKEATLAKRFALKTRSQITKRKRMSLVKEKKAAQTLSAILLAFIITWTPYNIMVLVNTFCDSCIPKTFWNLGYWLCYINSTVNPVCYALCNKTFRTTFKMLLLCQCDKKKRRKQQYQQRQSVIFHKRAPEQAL

The assay concerns the target T1, Recombinant human M3 receptor (Homo sapiens, UniProt P20309).
T1 construct: expressed in transfected cells; host or cells: CHO-K1 cells (membranes)
Put plainly: biochemical. The class given is binding. Particulars: SPA format; read-out: M3 Ki (SPA format). As for the experimental part: Recombinant human M3 receptor was expressed in CHO-K1 cells. Cell membranes were prepared and binding of [3H]-N-methyl scopolamine ([3H]-NMS) and compounds was assessed by a scintillation proximity assay (SPA). The incubation time was 16 hours at room temperature in the presence of 1% (v/v) DMSO. The assay was performed in white 96 well clear-bottomed NBS plates (Corning). Prior to the assay, the CHO cell membranes containing M3 receptor were coated onto SPA WGA (Wheat germ agglutinin) beads (GE Healthcare). Non specific binding was determined in the presence of 1 μM Atropine.
Radioactivity was measured on a Microbeta scintillation counter (PerkinElmer) using a 3H protocol with a 2 minutes per well read time. […] Concentration dependent inhibition of [3H]-NMS binding by compounds was expressed as pIC50.
What is called Ki is a dissociation constant, usually derived from enzyme kinetics or from competition with a known ligand. With `OC(c1ccccc1)(c1ccccc1)c1ncc(C[N+]23CCC(CC2)[C@@H](Oc2cccc(C(F)(F)F)c2)C3)o1` [Example 75, (R)-1-[2-[Hydroxy-diphenyl-methyl)-oxazol-5-ylmethyl]-3-(3-trifluoromethyl-phenoxy)-1-azonia-bicyclo[2.2.2]octane; bromide], the Ki was below 5 nM.
Next, `O[C@](c1ccccc1)(c1nnc(C[N+]23CCC(CC2)[C@@H](Oc2ccc(F)cc2)C3)o1)C1CCCCC1` [Example 142, (R)-1-[5-((R)—Cyclohexyl-hydroxy-phenyl-methyl)-[1,3,4]oxadiazol-2-ylmethyl]-3-(4-fluoro-phenoxy)-1-azonia-bicyclo[2.2.2]octane; bromide]: below 5 nM.
Consider `Cc1ccc(O[C@H]2C[N+]3(Cc4cnc(C(O)(c5ccccc5)c5ccccc5)o4)CCC2CC3)cc1Cl` [Example 59, (R)-3-(3-Chloro-4-methyl-phenoxy)-1-[2-(hydroxy-diphenyl-methyl)-oxazol-5-ylmethyl]-1-azonia-bicyclo[2.2.2]octane; bromide], for which the Ki is below 5 nM.
Next, `O[C@](c1ccccc1)(c1ncc(C[N+]23CCC(CC2)[C@@H](CSc2ccc(F)cc2)C3)o1)C1CCCCC1` [Example 106, (R)-1-[2-((R)—Cyclohexyl-hydroxy-phenyl-methyl)-oxazol-5-ylmethyl]-3-(4-fluoro-phenylsulfanylmethyl)-1-azonia-bicyclo[2.2.2]octane; bromide]: below 5 nM.
In the case of `O[C@](c1ccccc1)(c1ncc(C[N+]23CCC(CC2)[C@H](CSc2cccc(F)c2)C3)o1)C1CCCCC1` [Example 111, (S)-1-[2-((R)—Cyclohexyl-hydroxy-phenyl-methyl)-oxazol-5-ylmethyl]-3-(3-fluoro-phenylsulfanylmethyl)-1-azonia-bicyclo[2.2.2]octane; bromide], the Ki was below 5 nM.
Next, `Cc1ccc(O[C@H]2C[N+]3(Cc4nc(C(O)(c5ccccc5)C5CCCCC5)no4)CCC2CC3)cc1Cl` (single isomer, unassigned) [Example 129]: below 5 nM; `OC(c1ccccc1)(c1ccccc1)c1ncc(C[N+]23CCC(CC2)[C@@H](Oc2ccc(F)cc2)C3)o1` [Example 72, (R)-3-(4-Fluoro-phenoxy)-1-[2-(hydroxy-diphenyl-methyl)-oxazol-5-ylmethyl]-1-azonia-bicyclo[2.2.2]octane; bromide]: below 5 nM; `O[C@](c1ccccc1)(c1ncc(C[N+]23CCC(CC2)[C@@H](SC2CCCCC2)C3)o1)C1CCCCC1` [Example 119, (R)-1-[2-((R)—Cyclohexyl-hydroxy-phenyl-methyl)-oxazol-5-ylmethyl]-3-cyclohexylsulfanyl-1-azonia-bicyclo[2.2.2]octane; bromide]: below 5 nM.
`O[C@](c1ccccc1)(c1nnc(C[N+]23CCC(CC2)[C@@H](Oc2cccc(F)c2)C3)o1)C1CCCCC1` [Example 134, (R)-1-[5-((R)—Cyclohexyl-hydroxy-phenyl-methyl)-[1,3,4]oxadiazol-2-ylmethyl]-3-(3-fluoro-phenoxy)-1-azonia-bicyclo[2.2.2]octane; bromide]: the Ki is below 5 nM.
Next, `OC(c1ccccc1)(c1cc(C[N+]23CCC(CC2)[C@@H](Oc2cccc(F)c2)C3)on1)C1CCCCC1` (single isomer, unassigned) [Example 101]: below 5 nM.
In the case of `OC(c1ccccc1)(c1ccccc1)c1ncc(C[N+]23CCC(CC2)C(SCc2ccccc2)C3)o1` (stereo not shown) [Example 39, 3-Benzylsulfanyl-1-[2-(hydroxy-diphenyl-methyl)-oxazol-5-ylmethyl]-1-azonia-bicyclo[2.2.2]octane; bromide,], the inhibition constant Ki is 5 to 20 nM.
Next, `O[C@@](c1ccccc1)(c1ncc(C[N+]23CCC(CC2)[C@H](Oc2ccccc2)C3)o1)C1CCCCC1` [Example 6, (S)-1-[2-((S)—Cyclohexyl-hydroxy-phenyl-methyl)-oxazol-5-ylmethyl]-3-phenoxy-1-azonia-bicyclo[2.2.2]octane bromide]: above 20 nM.
Next, `OC(c1ccccc1)(c1ccccc1)c1ncc(C[N+]23CCC(CC2)[C@@H](OCc2cccc(F)c2)C3)o1` [Example 49, (R)-3-(3-fluoro-benzyloxy)-1-[2-(hydroxy-diphenyl-methyl)-oxazol-5-ylmethyl]-1-azonia-bicyclo[2.2.2]octane; formate]: below 5 nM; `O[C@](c1ccccc1)(c1ncc(C[N+]23CCC(CC2)C(Sc2ccccc2)C3)o1)C1CCCCC1` (stereo partly drawn) [Example 69, 1-[2-(R)-cyclohexyl-hydroxy-phenyl-methyl)-oxazol-5-ylmethyl]-3-phenylsulfanyl-1-azonia-bicyclo[2.2.2]octane; formate]: below 5 nM.
Next, `OC(c1ccccc1)(c1ccccc1)c1ncc(C[N+]23CCC(CC2)[C@@H](Oc2ccc4c(c2)OCO4)C3)o1` [Example 79, (R)-3-(Benzo[1,3]dioxal-5-yloxy)-1-[2-(hydroxy-diphenyl-methyl)-oxazol-5-ylmethyl]-1-azonia-bicyclo[2.2.2]octane; bromide]: below 5 nM.
Consider `CC(C)CS[C@H]1C[N+]2(Cc3cnc([C@](O)(c4ccccc4)C4CCCCC4)o3)CCC1CC2` [Example 120, (R)-1-[2-((R)—Cyclohexyl-hydroxy-phenyl-methyl)-oxazol-5-ylmethyl]-3-isobutylsulfanyl-1-azonia-bicyclo[2.2.2]octane; bromide], for which the Ki is below 5 nM.
Next, `OC(c1ccccc1)(c1cc(C[N+]23CCC(CC2)[C@@H](Oc2ccc(F)cc2)C3)on1)C1CCCCC1` (single isomer, unassigned) [Example 143]: below 5 nM; `Cc1ccc(O[C@H]2C[N+]3(Cc4cnc([C@](O)(c5ccccc5)C5CCCCC5)o4)CCC2CC3)cc1Cl` [Example 60, (R)-3-(3-Chloro-4-methyl-phenoxy)-1-[2-((R)-cyclohexyl-hydroxy-phenyl-methyl)-oxazol-5-ylmethyl]-1-azonia-bicyclo[2.2.2]octane; bromide]: below 5 nM; `OC(c1ccccc1)(c1ncc(C[N+]23CCC(CC2)[C@@H](OCc2ccccc2)C3)s1)C1CCCCC1` (stereo partly drawn) [Example 29, (R)-3-Benzyloxy-1-[2-(cyclohexyl-hydroxy-phenyl-methyl)-thiazol-5-ylmethyl]-1-azonia-bicyclo[2.2.2]octane; bromide]: below 5 nM.
Consider `O[C@](c1ccccc1)(c1ncc(C[N+]23CCC(CC2)[C@@H](OCc2ccccc2)C3)o1)C1CCCCC1` [Example 12, (R)-3-(Benzyloxy)-1-[2-(R)-cyclohexyl-hydroxy-phenyl-methyl)-oxazol-5-ylmethyl]-1-azonia-bicyclo[2.2.2]octane; bromide], for which the Ki is below 5 nM.
Next, `O[C@](c1ccccc1)(c1ncc(C[N+]23CCC(CC2)[C@@H](CSc2cccc(F)c2)C3)o1)C1CCCCC1` [Example 108, (R)-1-[2-((R)—Cyclohexyl-hydroxy-phenyl-methyl)-oxazol-5-ylmethyl]-3-(3-fluoro-phenylsulfanylmethyl)-1-azonia-bicyclo[2.2.2]octane; bromide]: below 5 nM; `OC(c1ccccc1)(c1ccccc1)c1ncc(C[N+]23CCC(CC2)[C@H](COc2ccccc2)C3)o1` [Example 92, (S)-1-[2-(Hydroxy-diphenyl-methyl)-oxazol-5-ylmethyl]-3-phenoxymethyl-1-azonia-bicyclo[2.2.2]octane; bromide]: 5 to 20 nM; `OC(c1ccccc1)(c1cc(C[N+]23CCC(CC2)[C@@H](SCc2ccccc2)C3)on1)C1CCCCC1` (single isomer, unassigned) [Example 126]: below 5 nM.
Next, `O[C@](c1ccccc1)(c1ncc(C[N+]23CCC(CC2)[C@H](CSc2ccccc2)C3)o1)C1CCCCC1` [Example 43, (S)-1-[2-((R)—Cyclohexyl-hydroxy-phenyl-methyl)-oxazol-5-ylmethyl]-3-phenylsulfanylmethyl-1-azonia-bicyclo[2.2.2]octane; bromide]: below 5 nM; `O[C@](c1ccccc1)(c1ncc(C[N+]23CCC(CC2)C(COc2ccc(F)cc2)C3)o1)C1CCCCC1` (single isomer, unassigned) [Example 87]: below 5 nM; `O[C@](c1ccccc1)(c1ncc(C[N+]23CCC(CC2)C(OCc2ccccc2)C3)o1)C1CCCCC1` (stereo partly drawn) [Example 16, 3-benzyloxy-1-[2-((R)-cyclohexyl-hydroxy-phenyl-methyl)-oxazol-5-ylmethyl]-1-azonia-bicyclo[2.2.2]octane; formate]: below 5 nM.
In the case of `OC(c1ccccc1)(c1cc(C[N+]23CCC(CC2)C(CSc2ccc(F)cc2)C3)on1)C1CCCCC1` (single isomer, unassigned) [Example 125], the Ki lay in the range of 5 to 20 nM.
Turning to `OC(c1ccccc1)(c1noc(C[N+]23CCC(CC2)C(CSc2cccc(F)c2)C3)n1)C1CCCCC1` (single isomer, unassigned) [Example 133], the Ki is below 5 nM.
Next, `OC(c1ccccc1)(c1noc(C[N+]23CCC(CC2)[C@@H](OCc2ccccc2)C3)n1)C1CCCCC1` (single isomer, unassigned) [Example 30, formate]: below 5 nM; `O[C@](c1ccccc1)(c1ncc(C[N+]23CCC(CC2)[C@H](SCc2ccccc2)C3)o1)C1CCCCC1` [Example 40, (S)-3-Benzylsulfanyl-1-[2-((R)-cyclohexyl-hydroxy-phenyl-methyl)-oxazol-5-ylmethyl]-1-azonia-bicyclo[2.2.2]octane; bromide]: below 5 nM; `OC(c1ccccc1)(c1ccccc1)c1ncc(C[N+]23CCC(CC2)C(COc2ccc(F)cc2)C3)o1` (single isomer, unassigned) [Example 86, 3-(4-Fluoro-phenoxymethyl)-1-[2-(hydroxy-diphenyl-methyl)-oxazol-5-ylmethyl]-1-azonia-bicyclo[2.2.2]octane; bromide]: 5 to 20 nM.
